Results taken from the supplement of paper PMC10477900.
Counter-ions that a name gives are not always drawn.

Key:
HCT116 [1] = assay: viability inhibition vs untreated; higher = more cytotoxic; conditions: 72 h
HCT116 [2] = conditions: 72 h
Method: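 HCT116 control and MTA1-KO (CRISPR) HCT116 cells were seeded in 384-well plates (800 cells/well), treated 16 h later with 237 metabolism-related anticancer drugs at five doses (10 uM, 2 uM, 400 nM, 80 nM, 16 nM) for 72 h, two replicates; viability by CCK8. Values are % inhibition of viability relative to untreated cells, plus fitted IC50.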

SMILES | viability inhibition (HCT116 [1]; genotype: MTA1-KO, 16 nM) | viability inhibition (HCT116 [1]; genotype: MTA1-KO, 80 nM) | viability inhibition (HCT116 [1]; genotype: MTA1-KO, 400 nM) | viability inhibition (HCT116 [1]; genotype: MTA1-KO, 2000 nM) | viability inhibition (HCT116 [1]; genotype: MTA1-KO, 10000 nM) | viability inhibition (HCT116 [1]; genotype: control, 16 nM) | viability inhibition (HCT116 [1]; genotype: control, 80 nM) | viability inhibition (HCT116 [1]; genotype: control, 400 nM) | viability inhibition (HCT116 [1]; genotype: control, 2000 nM) | viability inhibition (HCT116 [1]; genotype: control, 10000 nM) | IC50 (HCT116 [2]; genotype: MTA1-KO) | IC50 (HCT116 [2]; genotype: control)
CC(O)=C(C#N)C(=O)Nc1ccc(C(F)(F)F)cc1 [Teriflunomide] | -20.1% | -19.6% | -22.5% | -31.4% | -28.2% | 12.8% | -1.7% | -4.62% | -5.29% | 10.1% | > 10 µM | > 10 µM
N#CNC(=NCCCCCCOc1ccc(Cl)cc1)Nc1ccncc1 [CHS 828] | -0.922% | -1.84% | 18.8% | 41.1% | 49% | -11.1% | 18.5% | 30.7% | 59.8% | 79.4% | 0.535 µM | 1.85 µM
COC(=O)Nc1ccc(-c2nc(N3CCOCC3)c3cnn(C4CCN(C(=O)OC)CC4)c3n2)cc1 [WYE354] | 2.45% | -4.99% | -5.74% | 4.61% | 59.8% | -11.9% | -23.4% | -20.1% | -21.3% | 40.4% | 2.79 µM | > 10 µM
CO[C@H]1C[C@@H]2CC[C@@H](C)[C@@](O)(O2)C(=O)C(=O)N2CCCC[C@H]2C(=O)O[C@H]([C@H](C)C[C@@H]2CC[C@@H](OCCO)[C@H](OC)C2)CC(=O)[C@H](C)/C=C(\C)[C@@H](O)[C@@H](OC)C(=O)[C@H](C)C[C@H](C)/C=C/C=C/C=C/1C [Everolimus] | -19% | -24.2% | -24.2% | -22.2% | -6.06% | 5.54% | 0.73% | 1.76% | 3.41% | 25.7% | > 10 µM | > 10 µM
Cc1ccc(NC(=O)Nc2cc(-c3ccccc3-c3nn[nH]n3)ccc2N(CC(C)C)CC(C)C)cc1 [DO-IN-2] | -2.66% | 13.6% | 7.91% | 10.9% | -6.41% | 4.06% | 0.568% | -3.13% | -1.86% | 41.6% | > 10 µM | > 10 µM
CO[C@@H](C)Cn1c(=O)n(C)c2cnc3ccc(-c4cncc(C(C)(C)O)c4)cc3c21 | -8.01% | 27.7% | 58.8% | 90.6% | 102% | -0.225% | -9.63% | 58.5% | 90.9% | 104% | 0.289 µM | 0.382 µM
C/C(=C1/C(=O)Nc2ccc(NC(N)=O)cc21)c1ccc[nH]1 [BX517] | -1.27% | -4.96% | -15% | -7.43% | 62.3% | 7.33% | -2.63% | 0.244% | 10.4% | 67.6% | 7.24 µM | 6.88 µM
NS(=O)(=O)c1cc2c(cc1Cl)NCNS2(=O)=O [Hydrochlorothiazide] | -4.21% | -3.92% | -3.75% | -5.89% | -2.82% | 18.6% | 15.8% | 14.2% | -4.67% | 13.5% | > 10 µM | > 10 µM
N#Cc1ccnc(N2C(=O)CC[C@H]2C(=O)N(c2cncc(F)c2)[C@H](C(=O)NC2CC(F)(F)C2)c2ccccc2Cl)c1 [Ivosidenib] | 3.53% | -8.17% | -0.782% | 12.7% | 61.7% | -4.33% | -18.7% | -4.67% | -16.1% | -2.68% | 5.82 µM | > 10 µM
Cc1nc(-c2nc(-c3ccc(OC(F)(F)F)cc3)no2)nn1Cc1cccc(N2CCC(S(C)(=O)=O)CC2)c1 | 1.35% | 25% | 26.2% | 29.9% | 45.9% | 13.9% | 17.5% | 21.8% | 14.5% | 23.9% | > 10 µM | > 10 µM
Nc1cccc(S(=O)(=O)N2CCCN(S(=O)(=O)c3ccc4c(c3)OCCO4)CC2)c1 [DASA58] | -0.728% | -19.4% | -15.8% | -12.1% | 75% | -13.2% | -25.9% | -13.7% | -17.4% | -6.72% | 6.95 µM | > 10 µM
OC(CNc1ccccc1)Cn1c2ccc(Br)cc2c2cc(Br)ccc21 (stereo unspecified) [P7C3] | -3.09% | -13% | -15.4% | -15.3% | 6.71% | 10.1% | -2.92% | 4.14% | -4.2% | 7.54% | > 10 µM | > 10 µM
Cc1c(NC(=O)c2cc(C(N)=O)nc3cc(F)ccc23)c(C(F)(F)F)nn1Cc1ccc(C#N)cc1 [BAY876] | 50.2% | 73% | 82% | 90.4% | 110% | 72.8% | 89.8% | 97.7% | 103% | 102% | < 0.016 µM | < 0.016 µM
O=c1[nH]c(-c2ccc(C(F)(F)F)cc2)nc2c1CSCC2 [XAV939] | 1.12% | -14.7% | -18% | -23.8% | -14.9% | 4.99% | 12.8% | 0.365% | 4.5% | 0.791% | > 10 µM | > 10 µM
Cc1ccc(C(=O)Cn2c3c(sc2=N)CCCC3)cc1 [Pifithrin-α] | -1.55% | -3.09% | -7.19% | 3.88% | 32% | 9.06% | 2.07% | 21.3% | 9.85% | 22.1% | > 10 µM | > 10 µM
NCCCCN=C(N)N [Agmatine sulfate salt] | -2.78% | 3.53% | 1.54% | 7.76% | 55.4% | 11.2% | 9.12% | 22.6% | 28.6% | 22.5% | 8.87 µM | > 10 µM
COC(=O)N1CCN(Cc2cccc(NC(=O)Nc3ccc(C)nc3)c2F)CC1 [Omecamtiv mecarbil] | -10% | -12.1% | -17.5% | -17.9% | 8.94% | 8.94% | 4.13% | -7.43% | 1.24% | 5.67% | > 10 µM | > 10 µM
NS(=O)(=O)c1ccc(NC(=O)Nc2ccc(F)cc2)cc1 [U104] | -21.7% | -21.1% | -25.6% | -26.9% | -10.5% | -3.77% | -10.5% | -6.63% | -1.16% | 4.44% | > 10 µM | > 10 µM
